Patent publication US20150093333A1, “COMPOSITIONS, METHODS AND USES FOR PEPTIDES IN DIAGNOSIS, PROGRESSION AND TREATMENT OF CANCERS” (THE REGENTS OF THE UNIVERSITY OF COLORADO, body corporate, priority 2003, published 2015)
Where two headings read alike, the source gives them in different places. Where no end group is shown, it is not given here. [ ]: non-standard residue; d: D form. Lys(N3) = [N-]=[N+]=NCCCC[C@H](N)C(=O)O; Pra = C#CC[C@H](N)C(=O)O

Legend:
lipid vesicles [1] = assay: 1H NMR of C2B derived peptides treated with lipid vesicles; assay type: binding
Experimental: To verify that the origin of the differential peptide interaction towards lipid vesicles is due to the innate property of the peptide itself and not due to the fluorophores, ^1H NMR spectrometry investigations to probe the interaction of C2B derived peptides were carried out.
This observation is in contrast to NMR profiles of peptides that are known to interact with liposomes.

[2] = test system: 8:2 POPC/POPS lipid vesicles; assay: Fluorescence enhancement assay of C2B derived peptides with lipid vesicles; assay type: binding; conditions: for lipid vesicle binding and curvature sensing (fluorescence enhancement): 8:2 POPC/POPS vesicles 0.03 to 0.08 μm
Experimental: In certain examples, lipid vesicles were prepared using extrusion through membranes with pore sizes of 30, 80, and 400 nm to cover a wide range of curvatures. […] A lipid film was deposited on a glass vial by blowing down to dryness with Ar or N2 a CHCl3 solution of the lipids (Avanti Polar Lipids), followed by the removal of residual organic solvent under vacuum for several hours. The lipid film was hydrated overnight at 4° C. in PBS pH 7.4, the lipid suspension of multilamellar vesicles were subjected to five freeze-thaw cycles (except for extrusion through 400 nm pores), and followed by extrusion through polycarbonate membranes with pore diameters of 30, 80, and 400 nm to produce the desired SUVs using […]. […] An increase in the observed fluorescence intensity and a blue shifted λem maximum are directly correlated to a change in the environment surrounding the peptide, e.g., from the polar aqueous solvent to the hydrophobic lipid vesicle, and indicate a peptide-lipid interaction. The peptides were prepared by microwave-assisted SPPS, purified by reversed phase HPLC, and characterized by MALDI-TOF-MS. […] An increase in the observed fluorescence intensity and a blue shifted λem maximum are directly correlated to a change in the environment surrounding the peptide, i.e., from the polar aqueous solvent to the hydrophobic lipid vesicle, indicating a peptide-lipid interaction. Lipid vesicles composed of 8:2 palmitoyl oleoyl phosphatidylcholine (POPC) and palmitoyl oleoyl phosphatidylserine (POPS) were used to represent the approximate phospholipid composition of cellular membranes. These vesicles were prepared by extruding a suspension of multilamellar lipid vesicles in PBS buffer (pH=7.4) through polycarbonate membranes. The diameters of these lipid vesicles were measured using dynamic light scattering (DLS) that was calibrated with 50 nm polystyrene beads. […] FIG. 2 illustrates exemplary fluorescence assays performed to assess the interaction of labeled-peptides on synthetic and biologically relevant lipid vesicles. […]

[3] = test system: synthetic vesicles of sizes 100 nm and 400 nm; assay: Cosedimentation assay of MARCKS-ED with synthetic vesicles; assay type: binding; conditions: gel electrophoresis of supernatant and pellet
From the text: In another exemplary method, lipid vesicles were employed to the curvature-sensing behavior of the MARCKS derived peptides with various sizes and lipid components. The membrane curvature is defined as the reciprocal of the diameter of a particular particle, e.g., smaller-sized vesicles present highly curved membrane bilayers. A series of lipid models were made to represent various lipid components that closely resemble the lipid composition of biological membranes. […] Dynamic light scattering (DLS) and negative-stain transmission electron microscopy (TEM) were performed to confirm the different vesicle sizes following the pressure-controlled extrusion process through different membrane diameter pores. Commercial polystyrene beads were used as the calibration standard for the vesicle size validation experiments. Furthermore, a time-course experiment was carried out to confirm the stability of the vesicles up to 16 hours. Three different membrane diameters were extruded for the following biophysical characterizations: 30 nm, 100 nm, 400 nm, reflecting different membrane curvatures.
In another exemplary method, a cosedimentation assay was performed to test the size differentiation behavior of MARCKS-ED. Two vesicle pore sizes, 100 and 400 nm, were used in this experiment because vesicles smaller than 100 nm were difficult to pellet even at high centrifugation speed. MARCKS-ED (10 μM) was incubated with 600 μM synthetic vesicles of sizes 100 nm and 400 nm. The positive control was the intact C2A-C2B cytoplasmic domains (C2AB) of rat Synaptotamin-1 (a.a. 96-421). C2AB (1.5 μM) was treated with CaCl2 (1 mM) and incubated with 300 μM synthetic vesicles of sizes 100 nm and 400 nm. C2AB treated with vesicles was incubated at room temperature for 30 minutes, followed by centrifugation of 65,000 rpm for 45 minutes at 20° C. MARCKS-ED treated with vesicles was incubated at room temperature for 2 hours, followed by 75,000 rpm for 45 minutes at 20° C. […]

lipid vesicles [4] = conditions: cited from earlier work

C2B-Cou 5: linear GGDYDKIGKNDA peptide N-terminally labeled with 7-hydroxycoumarin-3-carboxylic acid ({7‑hydroxycoumarin‑3‑carbonyl}-GGDYDKIGKNDA)
interaction with liposomes (1H NMR peak intensity) (lipid vesicles [1]; 0.03 μm vesicles): are interacting with the lipid vesicles
lipid vesicle binding and curvature sensing (fluorescence enhancement) [2]: significant binding and curvature sensing property

Ac-GGDYDKIGKNDA-NH2 [C2B-Ac 3, linear 12-residue peptide derived from amino acids 363-372 of Syt1]
interaction with liposomes (1H NMR peak intensity) (lipid vesicles [1]; 0.03 μm vesicles): does not interact with the liposomes
interaction with liposomes (1H NMR peak intensity) (lipid vesicles [1]; vesicles with d=55±6 nm): weaker binding

C2B-Trp 4: linear GGDYDKIGKNDA peptide with N-terminal tryptophan (N-terminal tryptophan)
interaction with liposomes (1H NMR peak intensity) (lipid vesicles [1]; 0.03 μm vesicles): are interacting with the lipid vesicles
lipid vesicle binding and curvature sensing (fluorescence enhancement) [2]: significant binding and curvature sensing property

C2BL3C 1: 12-residue cyclic peptide from Syt1 C2B loop 3, Click cyclization of GGPraDYDKIGKNDANle(ε-N3) (GG[Pra]DYDKIGKNDA[Lys(N3)]-NH2; triazole (positions not given here); numbers in words are those of the source; also: Pra after Gly2 and Nle(ε-N3) after Ala12 joined by click triazole (head-to-tail side-chain cyclisation))
interaction with liposomes (1H NMR peak intensity) (lipid vesicles [1]; vesicles with d=55±6 nm): also interacts with liposomes

B1: C2AB: intact C2A-C2B cytoplasmic domains of rat Synaptotamin-1 (a.a. 96-421), positive control (protein, UniProt P21707 96-421, looked up, fragment)
chain: GGKNAINMKDVKDLGKTMKDQALKDDDAETGLTDGEEKEEPKEEEKLGKLQYSLDYDFQNNQLLVGIIQAAELPALDMGGTSDPYVKVFLLPDKKKKFETKVHRKTLNPVFNEQFTFKVPYSELGGKTLVMAVYDFDRFSKHDIIGEFKVPMNTVDFGHVTEEWRDLQSAEKEEQEKLGDICFSLRYVPTAGKLTVVILEAKNLKKMDVGGLSDPYVKIHLMQNGKRLKKKKTTIKKNTLNPYYNESFSFEVPFEQIQKVQVVVTVLDYDKIGKNDAIGKVFVGYNSTGAELRHWSDMLANPRRPIAQWHTLQVEEEVDAMLAVKK
pull-down by 100 nm vs 400 nm PS-containing vesicles [3]: more MARCKS-ED or C2AB was pulled down by the 100 nm, PS-containing vesicles than by the larger 400 nm vesicles
Kd (lipid vesicles [4]; 105 nm vesicles): 151 ± 6 µM
increase in binding to smaller vesicles (105 nm) relative to the larger ones (252 nm) (lipid vesicles [4]): 1.9 fold

B2: Syt1: Synaptotagmin-I, curvature-sensing protein used as positive control (protein, UniProt P21707 1-421, looked up)
Synaptotagmin-1: MVSASHPEALAAPVTTVATLVPHNATEPASPGEGKEDAFSKLKQKFMNELHKIPLPPWALIAIAIVAVLLVVTCCFCVCKKCLFKKKNKKKGKEKGGKNAINMKDVKDLGKTMKDQALKDDDAETGLTDGEEKEEPKEEEKLGKLQYSLDYDFQNNQLLVGIIQAAELPALDMGGTSDPYVKVFLLPDKKKKFETKVHRKTLNPVFNEQFTFKVPYSELGGKTLVMAVYDFDRFSKHDIIGEFKVPMNTVDFGHVTEEWRDLQSAEKEEQEKLGDICFSLRYVPTAGKLTVVILEAKNLKKMDVGGLSDPYVKIHLMQNGKRLKKKKTTIKKNTLNPYYNESFSFEVPFEQIQKVQVVVTVLDYDKIGKNDAIGKVFVGYNSTGAELRHWSDMLANPRRPIAQWHTLQVEEEVDAMLAVKK
fluorescence enhancement ([2]; with 30 nm vesicles, FIG. 2a): 1.28±0.02 RFU
Kd (lipid vesicles [4]; 105 nm vesicles): 151 µM
Kd (lipid vesicles [4]; 252 nm vesicles): 263 ± 180 µM
